Data from ChEMBL document CHEMBL1201862, “PubChem BioAssay data set” (2004).
Calls of active or inactive are those of the source.

Tests used:
[1] = molecular target: DNA dC->dU-editing enzyme APOBEC-3G (Homo sapiens, UniProt Q9HC16); assay: Dose Response confirmation of small molecule APOBEC3G DNA Deaminase Inhibitors via a fluorescence-based single-stranded DNA deaminase assay. [Related pubchem assays (depositor defined):AID493012, AID493028]; assay type: functional
[2] = molecular target: DNA dC->dU-editing enzyme APOBEC-3A (Homo sapiens, UniProt P31941); assay: APOBEC3A DNA deaminase inhibitors, dose response, biochemical (AID 504722); assay type: functional
BJ [3] = assay: cytotoxicity toward BJ-TERT fibroblasts, dose response, cell-based, RAS-independent, luminescence (AID 1933); assay type: functional; details: Homo sapiens
BJ [4] = assay: cells; assay type: functional, cell-based; details: Homo sapiens
[5] = Luminescence Cell-Based Dose Response HTS to Identify Activators of Luciferase Translation or Activity in H4 […] Cells. [Related pubchem assays: 1829 (Project Summary), 1814 (Primary HTS)]; assay type: functional
BJ [6] = assay: cytotoxicity toward BJ-TERT-LT-ST fibroblasts, dose response, cell-based, RAS-independent, luminescence (AID 1935); assay type: functional; details: Homo sapiens;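 note: BJ fibroblasts immortalized with TERT plus LT and ST oncogenes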
H4 = assay: Luminescence Cell-Based Dose Response HTS to Identify Activators of 5'UTR Stem-Loop Driven Prion Protein mRNA Translation in H4 Neuroglioblastoma Cells. [Related pubchem assays: 1829 (Project Summary), 1814 (Primary HTS)]; assay type: functional; details: Homo sapiens
[7] = Luminescence Cell-Based Dose Confirmation HTS to Identify Activators of 5'UTR Stem-Loop Driven Alpha-Synuclein mRNA Translation in H4 Neuroglioblastoma Cells. [Related pubchem assays: 1829 (Project Summary), 1814 (Primary HTS)]; assay type: functional
[8] = molecular target: T1, Replicative DNA helicase DnaB (Mycobacterium tuberculosis, UniProt P9WMR3); assay: DnaB intein splicing inhibitors, dose response, biochemical, cell-free fluorescence (AID 449749); assay type: functional
T1 sequence (P9WMR3 whole entry): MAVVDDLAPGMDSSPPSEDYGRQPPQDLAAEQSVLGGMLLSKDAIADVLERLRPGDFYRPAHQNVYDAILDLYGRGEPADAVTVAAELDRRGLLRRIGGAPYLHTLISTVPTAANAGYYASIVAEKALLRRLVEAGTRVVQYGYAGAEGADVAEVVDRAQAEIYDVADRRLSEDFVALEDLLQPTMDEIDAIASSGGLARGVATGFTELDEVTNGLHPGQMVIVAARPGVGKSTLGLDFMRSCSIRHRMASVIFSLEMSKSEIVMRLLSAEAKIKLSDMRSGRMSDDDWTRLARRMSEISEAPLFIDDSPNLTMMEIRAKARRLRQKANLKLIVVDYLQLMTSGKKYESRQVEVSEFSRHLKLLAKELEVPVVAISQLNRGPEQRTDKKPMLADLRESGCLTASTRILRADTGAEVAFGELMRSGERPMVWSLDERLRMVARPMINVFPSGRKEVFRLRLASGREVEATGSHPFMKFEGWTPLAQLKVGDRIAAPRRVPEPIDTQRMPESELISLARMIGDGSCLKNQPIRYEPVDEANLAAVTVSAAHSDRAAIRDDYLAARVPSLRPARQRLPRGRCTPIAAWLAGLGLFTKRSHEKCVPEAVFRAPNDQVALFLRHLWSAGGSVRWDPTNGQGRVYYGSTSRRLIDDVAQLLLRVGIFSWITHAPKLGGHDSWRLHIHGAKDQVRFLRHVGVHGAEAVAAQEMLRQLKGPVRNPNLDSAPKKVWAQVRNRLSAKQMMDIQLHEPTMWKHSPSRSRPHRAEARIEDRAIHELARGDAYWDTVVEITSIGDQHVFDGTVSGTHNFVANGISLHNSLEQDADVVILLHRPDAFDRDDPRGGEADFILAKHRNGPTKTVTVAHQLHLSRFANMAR

Paired box protein Pax-8 = Paired box protein Pax-8 (Homo sapiens, UniProt Q06710); assay: inhibitors of PAX8-driven TPO luciferase reporter, dose response, RMG-I cells, cherry-pick (AID 687027); assay type: functional, cell-based;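 note: luciferase reporter driven by Pax8 target thyroperoxidase promoter measured by SteadyGlo luminescence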
[9] = non-specific cell cytotoxicity, dose response, cytotoxicity control for PAX8 inhibitor project, plate reader, dry powder samples (AID 743021); assay type: functional, cell-based
BJ [10] = assay: cytotoxicity toward Ras-transformed BJeLR fibroblasts, dose response, cell-based, alamar blue fluorescence, cherrypicked samples (AID 2631); assay type: functional; details: Homo sapiens;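 note: confirmatory dose-response assay in RAS-dependent BJ fibroblasts engineered with TERT, LT and ST, with cytotoxicity read by fluorescence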
[11] = cytotoxicity toward DRD oncogenic fibroblasts, dose response, cell-based, non-viral oncogenic, luminescence (AID 1934); assay type: functional; details: Homo sapiens
[12] = molecular target: Glutathione S-transferase omega-1 (Homo sapiens, UniProt P78417); assay: GSTO1 inhibitor potency, recombinant enzyme, late-stage follow-up, biochemical, SE-Rh probe, in-gel fluorescence, powder samples (AID 463081); assay type: functional
Protein RecA = molecular target: T2, Protein RecA (Mycobacterium tuberculosis, UniProt P9WHJ3); assay: Fluorescence Cell-Free Homogeneous Dose Retest to Identify Inhibitors of RecA-Intein Splicing Activity. [Related pubchem assays (depositor defined):AID2097, AID2223, AID489010, AID492950]; assay type: functional
T2 sequence (P9WHJ3 whole entry): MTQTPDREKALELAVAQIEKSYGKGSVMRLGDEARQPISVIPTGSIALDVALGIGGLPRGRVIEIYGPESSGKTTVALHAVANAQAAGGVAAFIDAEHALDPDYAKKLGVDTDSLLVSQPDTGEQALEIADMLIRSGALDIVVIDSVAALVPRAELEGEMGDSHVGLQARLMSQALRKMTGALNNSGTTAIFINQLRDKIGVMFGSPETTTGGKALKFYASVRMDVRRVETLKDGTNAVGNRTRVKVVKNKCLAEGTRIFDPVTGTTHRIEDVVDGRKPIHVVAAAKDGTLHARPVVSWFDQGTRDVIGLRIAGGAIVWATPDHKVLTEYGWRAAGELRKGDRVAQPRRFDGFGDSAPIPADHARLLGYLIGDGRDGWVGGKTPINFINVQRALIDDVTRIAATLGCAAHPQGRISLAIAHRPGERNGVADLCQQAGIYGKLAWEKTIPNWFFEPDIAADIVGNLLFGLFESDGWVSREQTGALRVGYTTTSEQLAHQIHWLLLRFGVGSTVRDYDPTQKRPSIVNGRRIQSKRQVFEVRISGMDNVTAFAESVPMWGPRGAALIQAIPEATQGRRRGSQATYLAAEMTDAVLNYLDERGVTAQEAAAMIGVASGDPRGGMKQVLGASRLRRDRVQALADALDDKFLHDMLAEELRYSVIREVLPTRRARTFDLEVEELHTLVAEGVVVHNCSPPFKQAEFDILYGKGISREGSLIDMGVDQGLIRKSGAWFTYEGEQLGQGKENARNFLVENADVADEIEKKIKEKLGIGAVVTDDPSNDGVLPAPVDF

[13] = Luminescence Cell-Based Dose Retest to Confirm Inhibitors of Cancer Stem Cells. [Related pubchem assays (depositor defined):AID2717, AID2721]; assay type: functional; details: Homo sapiens
[14] = molecular target: Peroxisome proliferator-activated receptor gamma/Nuclear receptor coactivator 1 (Homo sapiens, UniProt P37231); assay type: functional;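 note: agonist potency as compounds enhance coactivator SRC-1 recruitment to PPARgamma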
[15] = molecular target: Peroxisome proliferator-activated receptor gamma/Nuclear receptor coactivator 2 (Homo sapiens, UniProt P37231); assay type: functional;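 note: agonist potency for raising coactivator recruitment to the receptor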
[16] = molecular target: Peroxisome proliferator-activated receptor gamma/Nuclear receptor coactivator 3 (Homo sapiens, UniProt P37231); assay type: functional;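 note: agonist potency for raising coactivator recruitment to the receptor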
[17] = molecular target: T3, Calpain-2 catalytic subunit (Sus scrofa, UniProt P43367); assay: pig calpain II inhibitor potency, dose response, biochemical, fluorogenic peptide substrate (AID 1420); assay type: functional
T3 sequence (P43367 whole entry): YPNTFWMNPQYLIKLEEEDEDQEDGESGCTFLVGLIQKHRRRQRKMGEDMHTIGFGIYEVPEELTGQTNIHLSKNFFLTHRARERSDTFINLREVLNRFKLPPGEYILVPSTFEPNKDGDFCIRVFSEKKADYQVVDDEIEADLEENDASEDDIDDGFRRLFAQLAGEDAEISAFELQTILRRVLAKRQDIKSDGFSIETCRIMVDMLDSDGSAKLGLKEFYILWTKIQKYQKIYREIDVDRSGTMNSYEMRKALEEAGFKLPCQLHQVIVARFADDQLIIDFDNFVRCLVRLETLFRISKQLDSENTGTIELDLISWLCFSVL

[18] = molecular target: Eukaryotic translation initiation factor 4E (Mus musculus, UniProt P63073); assay: eIF4E–eIF4G protein interaction inhibitors, dose response, biochemical, TR-FRET (AID 855); assay type: functional;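 note: potency for disrupting eIF4E binding to eIF4GI seen as loss of FRET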
[19] = molecular target: T4, Intestinal-type alkaline phosphatase (Homo sapiens, UniProt P09923); assay: human intestinal alkaline phosphatase activators, dose response, biochemical, luminescence, uHTS hits (AID 463120); assay type: functional
[20] = molecular target: T4, Intestinal-type alkaline phosphatase; assay: human IAP activators, dose response, biochemical, luminescent, uHTS hits, set 2 (AID 488817); assay type: functional;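 note: potency of activators that raise enzyme activity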
[21] = molecular target: Alkaline phosphatase, placental type (Homo sapiens, UniProt P05187); assay: PLAP enzyme inhibitors, confirmation, biochemical, luminescence (AID 1512); assay type: functional
[22] = molecular target: Glyceraldehyde-3-phosphate dehydrogenase (Homo sapiens, UniProt P04406)
[23] = molecular target: Intestinal-type alkaline phosphatase (Mus musculus, UniProt P24822); assay: PubChem AID 488874; assay type: functional
Chain of Intestinal-type alkaline phosphatase (Mus musculus, UniProt P24822) (P24822 whole entry): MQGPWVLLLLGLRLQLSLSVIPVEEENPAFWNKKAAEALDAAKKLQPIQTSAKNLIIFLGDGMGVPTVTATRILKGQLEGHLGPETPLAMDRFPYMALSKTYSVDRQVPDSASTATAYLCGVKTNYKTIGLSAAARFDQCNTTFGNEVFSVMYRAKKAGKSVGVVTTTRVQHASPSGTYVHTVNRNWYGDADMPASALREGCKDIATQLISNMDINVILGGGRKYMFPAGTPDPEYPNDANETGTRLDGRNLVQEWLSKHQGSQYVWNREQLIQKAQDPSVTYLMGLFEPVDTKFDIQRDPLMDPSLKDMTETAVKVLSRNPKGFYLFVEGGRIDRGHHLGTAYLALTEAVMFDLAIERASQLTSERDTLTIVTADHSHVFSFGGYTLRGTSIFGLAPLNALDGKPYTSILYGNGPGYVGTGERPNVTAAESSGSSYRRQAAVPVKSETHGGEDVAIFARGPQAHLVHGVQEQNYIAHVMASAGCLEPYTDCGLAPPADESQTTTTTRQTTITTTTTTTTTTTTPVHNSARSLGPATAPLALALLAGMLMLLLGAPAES

Chain of Alkaline phosphatase, placental type (P05187 whole entry): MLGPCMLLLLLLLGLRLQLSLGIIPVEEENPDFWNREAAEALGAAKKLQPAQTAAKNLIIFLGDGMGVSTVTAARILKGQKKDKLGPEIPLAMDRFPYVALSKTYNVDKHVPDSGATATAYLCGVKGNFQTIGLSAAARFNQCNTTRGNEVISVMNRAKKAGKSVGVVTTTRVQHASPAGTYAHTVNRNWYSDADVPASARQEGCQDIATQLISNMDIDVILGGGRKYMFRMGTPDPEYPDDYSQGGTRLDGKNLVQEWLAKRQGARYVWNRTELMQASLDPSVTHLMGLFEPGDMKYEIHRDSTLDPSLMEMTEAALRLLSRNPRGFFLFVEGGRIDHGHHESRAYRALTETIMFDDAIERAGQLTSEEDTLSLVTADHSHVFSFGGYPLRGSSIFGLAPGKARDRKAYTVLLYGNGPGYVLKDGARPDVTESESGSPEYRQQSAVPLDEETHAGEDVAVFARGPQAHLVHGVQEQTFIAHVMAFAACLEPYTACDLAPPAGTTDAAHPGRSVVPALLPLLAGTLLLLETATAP
T4 sequence (P09923 whole entry): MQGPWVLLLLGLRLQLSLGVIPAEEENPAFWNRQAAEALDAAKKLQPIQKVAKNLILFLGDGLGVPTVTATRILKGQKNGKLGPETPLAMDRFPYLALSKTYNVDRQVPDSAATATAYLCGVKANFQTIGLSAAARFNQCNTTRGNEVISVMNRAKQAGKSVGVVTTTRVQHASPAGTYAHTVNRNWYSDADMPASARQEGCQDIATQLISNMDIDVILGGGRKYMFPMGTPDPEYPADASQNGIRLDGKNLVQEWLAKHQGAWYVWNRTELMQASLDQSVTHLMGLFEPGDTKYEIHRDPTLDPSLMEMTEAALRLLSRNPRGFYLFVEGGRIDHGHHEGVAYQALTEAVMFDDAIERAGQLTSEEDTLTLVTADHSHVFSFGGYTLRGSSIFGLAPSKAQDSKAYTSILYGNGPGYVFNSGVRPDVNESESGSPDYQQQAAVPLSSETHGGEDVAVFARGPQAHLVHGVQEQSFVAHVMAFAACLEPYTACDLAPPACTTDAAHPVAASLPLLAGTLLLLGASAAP
Chain of Paired box protein Pax-8 (Q06710 whole entry): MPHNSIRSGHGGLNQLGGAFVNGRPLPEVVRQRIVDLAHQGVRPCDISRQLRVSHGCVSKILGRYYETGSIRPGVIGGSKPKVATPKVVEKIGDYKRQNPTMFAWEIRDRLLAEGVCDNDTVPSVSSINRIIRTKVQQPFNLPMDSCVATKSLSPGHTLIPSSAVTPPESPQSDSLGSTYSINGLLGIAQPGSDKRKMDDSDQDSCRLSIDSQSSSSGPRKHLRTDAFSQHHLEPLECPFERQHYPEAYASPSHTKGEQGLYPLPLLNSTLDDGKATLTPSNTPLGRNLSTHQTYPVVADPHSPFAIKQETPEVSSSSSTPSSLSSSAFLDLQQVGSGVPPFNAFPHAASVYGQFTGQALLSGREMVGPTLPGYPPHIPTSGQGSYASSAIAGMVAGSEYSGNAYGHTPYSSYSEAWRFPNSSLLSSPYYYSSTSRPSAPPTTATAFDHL
Chain of DNA dC->dU-editing enzyme APOBEC-3G (Q9HC16 whole entry): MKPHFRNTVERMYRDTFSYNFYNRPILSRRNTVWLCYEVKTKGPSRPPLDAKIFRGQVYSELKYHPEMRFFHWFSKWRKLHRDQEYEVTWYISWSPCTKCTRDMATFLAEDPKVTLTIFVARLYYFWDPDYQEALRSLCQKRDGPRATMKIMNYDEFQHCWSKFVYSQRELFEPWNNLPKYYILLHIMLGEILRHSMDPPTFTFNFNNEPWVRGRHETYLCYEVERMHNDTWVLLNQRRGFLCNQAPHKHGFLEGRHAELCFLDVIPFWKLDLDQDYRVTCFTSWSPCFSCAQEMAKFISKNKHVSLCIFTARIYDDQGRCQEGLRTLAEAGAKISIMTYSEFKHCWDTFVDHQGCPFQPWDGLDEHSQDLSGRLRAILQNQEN
Chain of Eukaryotic translation initiation factor 4E (P63073 whole entry): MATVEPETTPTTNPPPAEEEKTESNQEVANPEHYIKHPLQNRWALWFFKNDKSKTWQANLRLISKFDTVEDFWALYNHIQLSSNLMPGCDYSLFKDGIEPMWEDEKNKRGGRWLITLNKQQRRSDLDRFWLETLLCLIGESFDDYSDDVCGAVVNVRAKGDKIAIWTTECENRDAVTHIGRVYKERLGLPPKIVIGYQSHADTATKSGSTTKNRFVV
Chain of Peroxisome proliferator-activated receptor gamma/Nuclear receptor coactivator 1 (P37231 whole entry): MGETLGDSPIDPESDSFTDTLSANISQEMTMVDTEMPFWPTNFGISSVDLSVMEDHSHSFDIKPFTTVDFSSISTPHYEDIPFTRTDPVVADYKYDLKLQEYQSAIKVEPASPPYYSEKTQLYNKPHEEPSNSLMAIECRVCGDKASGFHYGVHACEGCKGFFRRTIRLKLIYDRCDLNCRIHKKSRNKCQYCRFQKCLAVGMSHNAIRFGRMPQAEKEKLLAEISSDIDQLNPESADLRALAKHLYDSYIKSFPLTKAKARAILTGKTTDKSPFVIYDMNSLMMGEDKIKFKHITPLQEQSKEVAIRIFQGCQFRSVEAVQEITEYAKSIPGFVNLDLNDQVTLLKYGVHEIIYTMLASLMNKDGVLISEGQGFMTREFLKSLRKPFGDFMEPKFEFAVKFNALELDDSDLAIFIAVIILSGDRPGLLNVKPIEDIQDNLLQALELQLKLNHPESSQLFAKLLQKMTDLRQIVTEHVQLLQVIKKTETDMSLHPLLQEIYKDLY
Chain of Peroxisome proliferator-activated receptor gamma/Nuclear receptor coactivator 1 (Q15788 whole entry, further chain): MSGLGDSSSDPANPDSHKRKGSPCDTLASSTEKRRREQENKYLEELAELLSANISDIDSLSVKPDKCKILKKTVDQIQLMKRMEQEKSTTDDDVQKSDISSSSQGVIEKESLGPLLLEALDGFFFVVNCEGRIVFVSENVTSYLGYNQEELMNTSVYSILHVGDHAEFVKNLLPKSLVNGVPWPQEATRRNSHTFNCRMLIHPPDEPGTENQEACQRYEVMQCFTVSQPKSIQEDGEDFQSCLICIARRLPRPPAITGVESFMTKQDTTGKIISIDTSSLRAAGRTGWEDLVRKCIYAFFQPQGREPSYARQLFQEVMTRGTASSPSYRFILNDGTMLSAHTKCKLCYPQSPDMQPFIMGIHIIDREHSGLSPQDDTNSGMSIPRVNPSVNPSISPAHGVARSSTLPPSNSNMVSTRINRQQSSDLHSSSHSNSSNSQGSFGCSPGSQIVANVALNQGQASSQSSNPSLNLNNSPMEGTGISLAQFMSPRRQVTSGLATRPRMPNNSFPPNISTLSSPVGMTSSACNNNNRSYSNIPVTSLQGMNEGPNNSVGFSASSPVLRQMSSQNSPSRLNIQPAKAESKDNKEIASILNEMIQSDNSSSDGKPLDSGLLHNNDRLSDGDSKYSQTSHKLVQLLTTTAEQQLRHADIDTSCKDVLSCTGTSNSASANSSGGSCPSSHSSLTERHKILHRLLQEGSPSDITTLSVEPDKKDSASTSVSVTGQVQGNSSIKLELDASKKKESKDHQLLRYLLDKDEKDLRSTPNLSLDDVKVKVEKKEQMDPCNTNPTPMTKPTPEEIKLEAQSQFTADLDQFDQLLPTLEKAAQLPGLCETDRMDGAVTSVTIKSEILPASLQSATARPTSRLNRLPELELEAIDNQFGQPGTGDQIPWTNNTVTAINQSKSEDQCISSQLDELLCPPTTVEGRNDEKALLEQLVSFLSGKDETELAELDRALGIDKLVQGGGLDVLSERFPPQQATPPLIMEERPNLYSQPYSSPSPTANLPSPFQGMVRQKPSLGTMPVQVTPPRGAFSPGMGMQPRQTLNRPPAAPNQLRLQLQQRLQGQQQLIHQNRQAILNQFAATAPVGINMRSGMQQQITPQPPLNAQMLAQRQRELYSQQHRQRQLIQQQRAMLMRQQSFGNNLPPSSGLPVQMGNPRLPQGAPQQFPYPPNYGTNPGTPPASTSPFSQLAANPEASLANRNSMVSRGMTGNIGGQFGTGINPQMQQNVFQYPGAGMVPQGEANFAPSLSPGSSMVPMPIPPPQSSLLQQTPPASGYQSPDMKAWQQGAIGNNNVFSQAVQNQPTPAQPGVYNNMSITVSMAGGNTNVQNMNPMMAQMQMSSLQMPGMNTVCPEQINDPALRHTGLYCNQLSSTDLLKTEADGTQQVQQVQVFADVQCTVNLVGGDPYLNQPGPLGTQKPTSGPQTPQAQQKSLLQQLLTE
Chain of Glutathione S-transferase omega-1 (P78417 whole entry): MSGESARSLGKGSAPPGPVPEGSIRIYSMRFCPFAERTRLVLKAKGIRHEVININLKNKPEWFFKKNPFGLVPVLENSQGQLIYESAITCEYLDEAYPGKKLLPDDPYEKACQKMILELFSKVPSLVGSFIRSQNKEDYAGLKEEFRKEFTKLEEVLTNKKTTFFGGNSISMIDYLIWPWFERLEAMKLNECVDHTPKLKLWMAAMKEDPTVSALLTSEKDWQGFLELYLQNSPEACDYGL

Q: Which IC50 [1] does the source give for `Cc1ccc(-n2c(-c3ccco3)n[nH]c2=S)cc1` here?
A: The IC50 was 4.57 µM (active).

Q: What about the IC50 [2] of the same molecule?
A: The IC50 was > 100 µM (inactive).

Q: With `O=C(NC1CCCCC1)C(c1cccnc1)N(C(=O)CCl)c1ccc(F)cc1` (stereo unspecified) as the molecule, how does the EC50 (BJ [3]) read?
A: Its EC50 is 1.3 µM (inconclusive).

Q: And the EC50 (BJ [4])?
A: The EC50 was 5.32 µM (inconclusive).

Q: What about the EC50 [5] of the same molecule?
A: The EC50 was 10.1 µM (active).

Q: And the EC50 (BJ [6])?
A: Its EC50 is 7.25 µM (active).

Q: What about the EC50 (H4) of the same molecule?
A: Its EC50 is > 120 µM (not active).

Q: And the EC50 [7]?
A: The EC50 was > 120 µM (not active).

Q: And the AC50 [8]?
A: The AC50 was 5.76 µM (active).

Q: And the AC50 (Paired box protein Pax-8)?
A: The AC50 was 1.43 µM (active).

Q: And the AC50 [9]?
A: Its AC50 is 7.37 µM (active).

Q: What about the EC50 (BJ [10]) of the same molecule?
A: Its EC50 is 0.535 µM (active).

Q: What about the EC50 [11] of the same molecule?
A: Its EC50 is 2.48 µM (active).

Q: What about the IC50 [12] of the same molecule?
A: The IC50 was 0.054 µM (active).

Q: And the EC50 (Protein RecA)?
A: The EC50 was 0.816 µM (active).

Q: What about the AC50 [13] of the same molecule?
A: The AC50 was 1.54 µM (active).

Q: Which results are given for `NS(=O)(=O)c1ccc(NC(=S)NCc2ccc(Cl)cc2)cc1`?
A: EC50 [14]: > 79.4 µM (not active); EC50 [15]: > 79.4 µM (not active); EC50 [16]: > 79.4 µM (not active); IC50 [17]: 9.36 µM (not active); IC50 [18]: > 64 µM (inactive)

Q: Which results are given for `Cc1cc(OCC(=O)Nc2nc[nH]n2)ccc1Cl`?
A: EC50 [19]: 10.7 µM (active); EC50 [20]: 21 µM (active); IC50 [21]: > 100 µM (inactive); IC50 [22]: > 10 µM (inconclusive); IC50 [23]: > 100 µM (inactive)
